The values that follow are results of earlier work, collected in US20230398128A1, “PREFERRED ORAL TESTOSTERONE UNDECANOATE THERAPY TO ACHIEVE TESTOSTERONE REPLACEMENT TREATMENT” (Marius Pharmaceuticals LLC, priority 2021, published 2023).

The conditions of this data set: for increase in ambulatory SBP: previous testosterone studies.

SMILES strings stand for the structures.

Regarding `CCCCCCCCCCC(=O)O[C@H]1CC[C@H]2[C@@H]3CCC4=CC(=O)CC[C@]4(C)[C@H]3CC[C@]12C` [testosterone undecanoate (oral), testosterone undecanoate], the “increase in ambulatory SBP” value was 4.9 mmHg. In addition, the “increase in ambulatory systolic BP” value (previously reported study, subjects receiving antihypertensive medication) is 5.5 mmHg.

With `CCCCCCC(=O)O[C@H]1CC[C@H]2[C@@H]3CCC4=CC(=O)CC[C@]4(C)[C@H]3CC[C@]12C` [testosterone enanthate], the “increase in ambulatory SBP” value is on record as 3.7 mmHg.
